From patent US9156889B2, “Drug transporter permeating blood-brain barrier, peptide and use thereof” (priority 2011, dated 2015)
Where no end group is shown, it is not given here.

Experiments:
[1] = system: poliovirus (Mahoney strain); assay type: binding
[2] = system: poliovirus (Mahoney strain); assay type: binding; remark: listed apart in the source
[3] = system: poliovirus (Mahoney strain); assay type: binding; remark: listed apart in the source
[4] = system: Mouse brain capillary endotherial cells (MBEC) 4
[5] = system: Mouse brain capillary endotherial cells (MBEC) 4; remark: listed apart in the source

## GST-mTfR1 (TQFPPSQSS; not fully specified (N-terminus))
[1]
  binding to poliovirus: band in western blotting after purification: band was similarly detected

## SEQ ID NO: 6 (TQFPPSRSS; listed as Homo sapiens)
[2]
  binding to poliovirus (western blotting after purification): directly involved with the binding to poliovirus

## SEQ ID NO: 7 (TQFPPVASS; listed as Homo sapiens)
[2]
  binding to poliovirus (western blotting after purification): directly involved with the binding to poliovirus

## SEQ ID NO: 8 (TQFPPVESS; listed as Mus musculus)
[2]
  binding to poliovirus (western blotting after purification): directly involved with the binding to poliovirus

## Strep-mTfR1
[3]
  binding to poliovirus: bands in western blotting after purification: bands were detected
[1]
  binding to poliovirus: band in western blotting after purification: band was detected

## dextran
[4]
  PS value (permeation rate, permeation activity): 0.20

## fluorescence-labeled transferrin
[5]
  PS value: 0.33

## transferrin
[4]
  effect on the permeation of poliovirus through the blood-brain barrier: inhibits the permeation of poliovirus
